# Experimental data published in US10385022B2, “3-amino-pyridines as GPBAR1 agonists” (HOFFMANN-LA ROCHE INC., priority 2011, dated 2019).
# Target: human GPBAR1 receptor (Homo sapiens (Human), UniProt Q8TDU6)
# Assay: functional cAMP assay in CHO-dhfr(minus) cells expressing human GPBAR1 receptors
# Type: cell-based
# Settings: CHO-dhfr(minus) cells expressing human GPBAR1, 30 min at 30° C.
# Protocol: The final clone was verified by DNA sequence analysis. The plasmid was transfected into CHO cells deficient in dihydrofolate reductase activity (CHO-dhfr-) using Lipofectamine plus (Invitrogen). Clones were isolated in limited dilution conditions and identified by activities in the cAMP assay using lithocholic acid as agonist.
# EC50 values were determined using Activity Base analysis (ID Business Solution, Limited). […] Specificity for GPBAR1 was tested in non-transfected CHO cells in the same assay as above.
# human GPBAR1 receptor, sequence (Q8TDU6 whole entry): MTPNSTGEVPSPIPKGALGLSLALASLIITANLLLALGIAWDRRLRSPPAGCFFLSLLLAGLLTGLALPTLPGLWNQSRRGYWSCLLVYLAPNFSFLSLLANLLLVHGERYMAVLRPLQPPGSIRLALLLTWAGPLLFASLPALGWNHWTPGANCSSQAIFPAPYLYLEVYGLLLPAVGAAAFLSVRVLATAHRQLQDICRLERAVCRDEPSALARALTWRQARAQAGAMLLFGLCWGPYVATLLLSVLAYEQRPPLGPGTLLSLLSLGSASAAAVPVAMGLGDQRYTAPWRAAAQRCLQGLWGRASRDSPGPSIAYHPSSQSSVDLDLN
row,Structure (SMILES),EC50 [nM]
1,"COc1cc(F)ccc1-c1ccncc1N(C)C(=O)c1cc(C2CN(C(=O)OC(C)(C)C)C2)cc(C(F)(F)F)c1 [Example 245, 3-(3-{[4-(4-Fluoro-2-methoxy-phenyl)-pyridin-3-yl]-methyl-carbamoyl}-5-trifluoromethyl-phenyl)-azetidine-1-carboxylic acid tert-butyl ester]",933
2,"CC(C#N)Oc1cc(F)ccc1-c1ccncc1N(C)C(=O)c1cc(C(F)(F)F)cc(C(F)(F)F)c1 (stereo not shown) [Example 53, N-{4-[2-(Cyano-methyl-methoxy)-4-fluoro-phenyl]-pyridin-3-yl}-N-methyl-3,5-bis-trifluoromethyl-benzamide]",1100
3,"COc1cc(F)ccc1-c1ccnc(Cl)c1N(C)C(=O)c1cc(C(F)(F)F)cc(S(C)(=O)=O)c1 [Example 212, N-[2-Chloro-4-(4-fluoro-2-methoxy-phenyl)-pyridin-3-yl]-3-methanesulfonyl-N-methyl-5-trifluoromethyl-benzamide]",75
4,"COc1cc(F)c(F)cc1-c1ccncc1N(CC(N)=O)C(=O)c1cc(C(F)(F)F)cc(C(F)(F)F)c1 [Example 189, N-Carbamoylmethyl-N-[4-(4,5-difluoro-2-methoxy-phenyl)-pyridin-3-yl]-3,5-bis-trifluoromethyl-benzamide]",47
5,"Cc1cc(-c2ccccc2Cl)c(N(CC(F)(F)F)C(=O)c2cc(C(F)(F)F)cc(S(C)(=O)=O)c2)cn1 [Example 300, N-[4-(2-Chloro-phenyl)-6-methyl-pyridin-3-yl]-3-methanesulfonyl-N-(2,2,2-trifluoro-ethyl)-5-trifluoromethyl-benzamide]",831
6,"COc1ccccc1-c1ccncc1N(C)C(=O)c1cc(C(F)(F)F)cc(S(C)(=O)=O)c1 [Example 263, 3-Methanesulfonyl-N-[4-(2-methoxy-phenyl)-pyridin-3-yl]-N-methyl-5-trifluoromethyl-benzamide]",17
7,"Cc1ccc(-c2ccncc2N(C)C(=O)c2cc(C(F)(F)F)cc(C(F)(F)F)c2)c(C)c1 [Example 26, N-[4-(2,4-Dimethyl-phenyl)-pyridin-3-yl]-N-methyl-3,5-bis-trifluoromethyl-benzamide]",686
8,"O=C(c1cc(C(F)(F)F)nc(C(F)(F)F)c1)N(CC(F)(F)F)c1cnccc1-c1ccccc1F [Example 151, N-[4-(2-Fluoro-phenyl)-pyridin-3-yl]-N-(2,2,2-trifluoro-ethyl)-2,6-bis-trifluoromethyl-isonicotinamide]",47
9,"COc1ccc(F)c(-c2ccncc2N(C)C(=O)c2cc(C(F)(F)F)cc(S(C)(=O)=O)c2)c1F [Example 285, N-[4-(2,6-Difluoro-3-methoxy-phenyl)-pyridin-3-yl]-3-methanesulfonyl-N-methyl-5-trifluoromethyl-benzamide]",2900
10,"Cc1ccccc1-c1ccncc1N(C)C(=O)c1cc(F)cc(Cl)c1 [Example 103, 3-Chloro-5-fluoro-N-methyl-N-(4-o-tolyl-pyridin-3-yl)-benzamide]",329
11,"CS(=O)(=O)c1cc(C(=O)N(CC(F)(F)F)c2cnccc2-c2ccccc2F)cc(C(F)(F)F)c1 [Example 214, N-[4-(2-Fluoro-phenyl)-pyridin-3-yl]-3-methanesulfonyl-N-(2,2,2-trifluoro-ethyl)-5-trifluoromethyl-benzamide]",265
12,"COc1cc(F)ccc1-c1ccncc1N(C)C(=O)c1cc(C(F)(F)F)cc(S(=O)(=O)CCCCC(N)=O)c1 [Example 254, 3-(4-Carbamoyl-butane-1-sulfonyl)-N-[4-(4-fluoro-2-methoxy-phenyl)-pyridin-3-yl]-N-methyl-5-trifluoromethyl-benzamide]",54
13,"COc1c(F)cccc1-c1ccncc1N(C)C(=O)c1cc(C(F)(F)F)cc(C(F)(F)F)c1 [Example 41, N-[4-(3-Fluoro-2-methoxy-phenyl)-pyridin-3-yl]-N-methyl-3,5-bis-trifluoromethyl-benzamide]",90
14,"CS(=O)(=O)c1cc(C(=O)N(CC(F)F)c2cnccc2-c2ccccc2F)cc(C(F)(F)F)c1 [Example 215, N-(2,2-Difluoro-ethyl)-N-[4-(2-fluoro-phenyl)-pyridin-3-yl]-3-methanesulfonyl-5-trifluoromethyl-benzamide]",216
15,"COc1cc(F)ccc1-c1ccncc1N(C)C(=O)c1cc(Cl)cc(C2CC2)c1 [Example 238, 3-Chloro-5-cyclopropyl-N-[4-(4-fluoro-2-methoxy-phenyl)-pyridin-3-yl]-N-methyl-benzamide]",23
16,"CN(C(=O)c1cc(C(F)(F)F)cc(C(F)(F)F)c1)c1cnccc1-c1ccc(F)cc1O [Example 48, N-[4-(4-Fluoro-2-hydroxy-phenyl)-pyridin-3-yl]-N-methyl-3,5-bis-trifluoromethyl-benzamide]",307

# Other lines, results leading:
row,EC50 [nM],Structure (SMILES)
1,571,"CN(C(=O)c1cc(C(F)(F)F)cc(C(F)(F)F)c1)c1cnccc1-c1ccccc1CC#N [Example 175, N-[4-(2-Cyanomethyl-phenyl)-pyridin-3-yl]-N-methyl-3,5-bis-trifluoromethyl-benzamide]"
2,2720,"CN(C(=O)c1cc(C(F)(F)F)cc(S(C)(=O)=O)c1)c1cnccc1-c1cccnc1OC1CN(C(=O)OC(C)(C)C)C1 [Example 320, 3-{3′-[(3-Methanesulfonyl-5-trifluoromethyl-benzoyl)-methyl-amino]-[3,4′]bipyridinyl-2-yloxy}-azetidine-1-carboxylic acid tert-butyl ester]"
3,9,"COc1ncccc1-c1ccncc1N(C)C(=O)c1cc(C(F)(F)F)cc(C(F)(F)F)c1 [Example 32, N-(2-Methoxy-[3,4′]bipyridinyl-3′-yl)-N-methyl-3,5-bis-trifluoromethyl-benzamide]"
4,242,"Cc1ccccc1-c1ccncc1N(C)C(=O)c1cc(C#N)cc(C(F)(F)F)c1 [Example 149, 3-Cyano-N-methyl-N-(4-o-tolyl-pyridin-3-yl)-5-trifluoromethyl-benzamide]"
5,41,"COc1cc(F)ccc1-c1cc(C)ncc1N(C)C(=O)c1cc(SC2COC2)cc(C(F)(F)F)c1 [Example 310, N-[4-(4-Fluoro-2-methoxy-phenyl)-6-methyl-pyridin-3-yl]-N-methyl-3-(oxetan-3-ylsulfanyl)-5-trifluoromethyl-benzamide]"
6,3040,"Cc1ccc(F)cc1-c1cc(Cl)ncc1N(C)C(=O)c1cc(C(F)(F)F)cc(S(C)(=O)=O)c1 [Example 253, N-[6-Chloro-4-(5-fluoro-2-methyl-phenyl)-pyridin-3-yl]-3-methanesulfonyl-N-methyl-5-trifluoromethyl-benzamide]"
7,166,"COc1cc(F)c(F)cc1-c1ccncc1N(C)C(=O)c1cc(F)cc(C(F)(F)F)c1 [Example 130, N-[4-(4,5-Difluoro-2-methoxy-phenyl)-pyridin-3-yl]-3-fluoro-N-methyl-5-trifluoromethyl-benzamide]"
8,478,"COc1cc(F)ccc1-c1ccncc1N(CC(N)=O)C(=O)c1cc(C(F)(F)F)cc(S(C)(=O)=O)c1 [Example 187, N-Carbamoylmethyl-N-[4-(4-fluoro-2-methoxy-phenyl)-pyridin-3-yl]-3-methanesulfonyl-5-trifluoromethyl-benzamide]"
9,2720,"COc1cccc(-c2ccncc2N(C)C(=O)c2cc(C(F)(F)F)cc(C(F)(F)F)c2)c1OC [Example 167, N-[4-(2,3-Dimethoxy-phenyl)-pyridin-3-yl]-N-methyl-3,5-bis-trifluoromethyl-benzamide]"
